From patent publication US8697691B2, “Alkyl 3-((2-amidoethyl)amino)-8-azabicyclo[3.2.1]octane-8-carboxylate analogs as selective M1 agonists and methods of making and using same” (Vanderbilt University, priority 2009, dated 2014)

Key:
Type in all cases: cell-based
hM3 receptor = biological target: T1, hM3 receptor (Homo sapiens, UniProt P20309); assay: Calcium mobilization assay, CHO cells stably expressing hM3
T1 construct: expressed in transfected cells; host or cells: CHO cells (Levey et al., 1991)
T1 sequence (P20309 whole entry): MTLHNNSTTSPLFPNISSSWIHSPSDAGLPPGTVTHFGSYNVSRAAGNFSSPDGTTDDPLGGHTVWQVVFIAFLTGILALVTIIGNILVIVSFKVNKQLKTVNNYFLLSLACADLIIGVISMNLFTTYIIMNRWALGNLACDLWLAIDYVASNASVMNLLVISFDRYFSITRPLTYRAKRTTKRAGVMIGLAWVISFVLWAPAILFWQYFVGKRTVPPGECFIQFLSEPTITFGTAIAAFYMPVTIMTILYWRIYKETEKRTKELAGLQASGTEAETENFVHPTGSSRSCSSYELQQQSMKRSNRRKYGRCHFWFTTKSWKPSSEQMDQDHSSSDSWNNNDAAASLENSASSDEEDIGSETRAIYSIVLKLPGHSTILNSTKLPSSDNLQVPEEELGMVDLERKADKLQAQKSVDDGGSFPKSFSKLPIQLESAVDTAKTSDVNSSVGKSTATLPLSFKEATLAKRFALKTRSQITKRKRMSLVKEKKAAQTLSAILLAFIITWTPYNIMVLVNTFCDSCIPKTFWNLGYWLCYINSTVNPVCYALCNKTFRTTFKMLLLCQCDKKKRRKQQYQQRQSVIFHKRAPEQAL
Text: (§1) Chinese hamster ovary (CHO-K1) cells stably expressing rat (r)M1 were purchased from the American Type Culture Collection and cultured according to their indicated protocol. CHO cells stably expressing human (h)M2, hM3, and hM5 were described previously (Levey et al., 1991); hM1 and hM4 cDNAs were purchased from Missouri S&T cDNA Resource; rM4 cDNA was provided by T. I. Bonner (National Institutes of Health, Bethesda, Md.). hM1, hM4, and rM4 cDNAs were used to stably transfect CHO-K1 cells purchased from the American Type Culture Collection using Lipofectamine2000. […]
(§2) For low throughput measurement of agonist-evoked increases in intracellular calcium, CHO-K1 cells stably expressing muscarinic receptors were plated in 100 μL of growth medium at 5×10^4 (rM1, hM3, and hM5) or 6×10^4 cells per well (rM1 Y381A, hM2, and rM4) in Costar 96-well black-walled, tissue culture (TC)-treated, clear-bottom plates (Fisher). […] For calcium fluorescence measurements, CRCs of compounds (50 μl, 2×) were added 19 s after the beginning of data collection via a Flexstation II (Molecular Devices, Sunnyvale, Calif.). Fluorescence imaging continued for a total of 130 s acquisition time using an excitation wavelength of 488 nm, an emission wavelength of 525 nm, and a cutoff wavelength of 515 nm. […]

hM4 receptor = biological target: T2, hM4 receptor (Homo sapiens, UniProt P08173); assay: Calcium mobilization assay, CHO-K1 cells stably expressing hM4-Gqi5
T2 construct: host or cells: CHO-K1, additionally stably transfected with Gqi5
T2 sequence (P08173 1-479): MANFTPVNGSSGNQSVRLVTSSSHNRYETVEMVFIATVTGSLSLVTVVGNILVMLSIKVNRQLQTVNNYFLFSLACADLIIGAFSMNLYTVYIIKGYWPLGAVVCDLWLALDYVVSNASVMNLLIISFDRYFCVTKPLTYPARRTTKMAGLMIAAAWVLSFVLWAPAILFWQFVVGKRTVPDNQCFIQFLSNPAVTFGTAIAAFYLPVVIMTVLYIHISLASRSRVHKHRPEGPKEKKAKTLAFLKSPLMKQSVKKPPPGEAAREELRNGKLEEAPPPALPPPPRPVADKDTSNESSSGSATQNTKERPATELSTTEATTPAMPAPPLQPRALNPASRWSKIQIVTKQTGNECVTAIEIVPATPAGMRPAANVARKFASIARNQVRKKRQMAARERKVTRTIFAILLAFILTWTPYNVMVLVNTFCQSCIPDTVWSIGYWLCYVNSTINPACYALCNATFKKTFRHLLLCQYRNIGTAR
Text: as §1, §2

hM2 receptor = hM2 receptor (Homo sapiens, UniProt P08172); assay: Calcium mobilization assay, CHO cells stably expressing hM2-Gqi5
hM2 receptor, sequence (P08172 whole entry): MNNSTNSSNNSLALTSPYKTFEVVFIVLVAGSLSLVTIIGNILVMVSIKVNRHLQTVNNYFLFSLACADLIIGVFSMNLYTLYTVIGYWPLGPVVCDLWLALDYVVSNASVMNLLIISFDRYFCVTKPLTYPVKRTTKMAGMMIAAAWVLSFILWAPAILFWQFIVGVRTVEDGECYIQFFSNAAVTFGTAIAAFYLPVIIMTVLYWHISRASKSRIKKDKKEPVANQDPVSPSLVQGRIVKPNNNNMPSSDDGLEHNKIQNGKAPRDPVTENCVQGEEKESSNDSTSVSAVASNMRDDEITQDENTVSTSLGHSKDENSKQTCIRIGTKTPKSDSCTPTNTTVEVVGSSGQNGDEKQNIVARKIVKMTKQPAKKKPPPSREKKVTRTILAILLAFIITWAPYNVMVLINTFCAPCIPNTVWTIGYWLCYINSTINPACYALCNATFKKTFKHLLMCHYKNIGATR
Text: as §1, §2

Compound	EC50 (hM3 receptor) [µM]	EC50 (hM4 receptor) [µM]	EC50 (hM2 receptor) [µM]
CCOC(=O)N1[C@@H]2CC[C@H]1C[C@H](NCCNC(=O)c1ccccc1)C2 [Example 26, ethyl 3-((3-exo)-(2-benzamidoethyl)amino)-8-azabicyclo[3.2.1]octane-8-carboxylate]	> 10	> 10	> 10
CCOC(=O)N1[C@@H]2CC[C@H]1C[C@@H](NCCNC(=O)c1ccccc1)C2 [Example 27, ethyl 3-((3-endo)-(2-benzamidoethyl)amino)-8-azabicyclo[3.2.1]octane-8-carboxylate]	~10	~3	~3
